Measured values: publication PMC11493595, “Stretching the structural envelope of imatinib to reduce β-amyloid production by modulating both β- and γ-secretase cleavages of APP” (Frontiers in Chemistry, 2024)
Where a name gives a salt, the structure may show the parent alone.

Legend:
[1] = tested on: β- and γ-cleavages of APP; test: Aβ in N2a cells transiently transfected with APP-FL or APP99 (APP-βCTF): BACE vs γ-secretase cleavage; format: cell-based; details: N2a cells transiently transfected with APP695 (APP-FL) or APP C99, 5 h
Method: To determine effects of compounds on BACE1 vs. GS inhibition, we used N2a cells transiently transfected with full length APP (APP-FL) or with APP99 (APP-βCTF) as described previously ([Netzer et al., 2017]; [Sun et al., 2019]). After 48 h, media were removed and fresh media containing compound 1a and analogs were added. Following 5 h of incubation, cell supernatants were collected, and analyzed using MSD-ELISA for Aβ and sAPPα and western blot for sAPPβ.
We focused on IMTi-1 and its analogs 1d, 1f and 1p. […] To test whether these compounds lower Aβ levels by affecting the BACE and/or γ-secretase cleavages, we transfected wild-type (wt) cells with APP-FL and APP βCTF (C99), respectively, and incubated the cells with IMTi-1 (isomer) and analogs 1d, 1f and 1p. We used BACE inhibitor, MK8931, and γ-secretase inhibitor, DAPT, as controls and performed the experiments and processed the results as described previously ([Sun et al., 2019]).

N2a695 cells = test: Screening of Aβ production in N2a695 cells (Aβ ELISA of cell supernatants); format: cell-based
Method: N2a695 were cultured in 1:1 OptiMem Reduced Serum Media (Life Technologies): Dulbecco’s Modified Eagle Medium ([+] 4.5 g/L D-glucose [+] L-Glutamine; [−] Sodium pyruvate (Life Technologies) supplemented with 5% fetal bovine serum, 0.4% Penstrep and 0.4% Geneticin and incubated at 37°C in 5% CO2. Antibodies were obtained from The Laboratory of Molecular and Cellular Neuroscience at The Rockefeller University. Human Aβ40 and Aβ42 ELISA plates (Life Technologies) and Plus MSD (Mesoscale Discovery) plates for Aβ Peptide (Aβ38, Aβ40 and Aβ42) Panel 1 (6E10) Kit (Catalog number K15200G) were obtained from Thermo Fisher, Life Technologies and Meso Scale Discovery.
N2a695 cells were used to screen all new compounds and in the follow-up studies with compounds found active in the preliminary screen. In a typical experiment, 6-well tissue culture plates (Corning) were seeded at 4.0 × 10^5–4.5 × 10^5 N2a695 cells/mL, 2 mL/well for overnight incubation. When cells were >95% confluent, media were exchanged with fresh media containing 10 µM solutions of compounds or DMSO carrier alone and cells were incubated at 37°C in 5% CO2 for 5 h. Culture media were collected and soluble Aβ concentrations in the media were determined by ELISA or MSD plates for human Aβ peptides as per manufacturer instructions. Signals for Aβ were measured using Perkin Elmer Envision and SQ120 MSD ELISA reader. Follow-up studies with N2a695 cells were performed similarly.
Specifically, we exposed N2a695 cells to increasing concentrations of each compound and measured the production of Aβ38, 40, and 42. […] Remarkably, this occurs for all Aβ peptides tested shorter than 40 amino acids (Figure 2C). Moreover, for some compounds that modulate γ-secretase activity most conspicuously at 5 μM, this effect vanishes at 10 μM, relative to controls (Figure 2B, C). […]

Abl1 kinase = molecular target: T1, Abl1 kinase (Homo sapiens, UniProt P00519); test: In vitro kinase activity assay (split-luciferase, Luceome); format: biochemical; details: read-out: IC50, Abl kinase
T1 sequence (P00519 242-493 limits assumed): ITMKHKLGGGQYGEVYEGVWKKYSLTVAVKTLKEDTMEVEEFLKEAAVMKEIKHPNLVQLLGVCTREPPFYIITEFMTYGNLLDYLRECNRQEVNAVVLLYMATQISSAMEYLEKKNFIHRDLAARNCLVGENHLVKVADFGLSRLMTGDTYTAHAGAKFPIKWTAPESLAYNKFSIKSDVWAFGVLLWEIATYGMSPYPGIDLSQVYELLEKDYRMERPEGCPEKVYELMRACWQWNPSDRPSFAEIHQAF
Method: The assay was performed by Luceome Biotechnologies, LLC. Typically, 10 mM stock solutions of the compounds were diluted in DMSO to a concentration of 250 μM. Prior to initiating the assay, all test compounds were evaluated for false positive against split-luciferase ([Jester et al., 2010]). For kinase assays, each Cfluc-Kinase was translated along with Fos-Nfluc using a cell-free system (rabbit reticulocyte lysate) at 30°C for 90 min 24 μL aliquot of this lysate containing either 1 μL of DMSO (for no-inhibitor control) or compound solution in DMSO (10 μM final concentration) was incubated for 30 min at room temperature followed by 1 h in presence of a kinase specific probe. 80 μL of luciferin assay reagent was added to each solution and luminescence was immediately measured on a luminometer. The percent Inhibition was calculated using the following equation: % Inhibition = (ALUcontrol–ALUsamplex 100)/ALUcontrol.

BACE1 = tested on: BACE1; set-up: method as in Netzer et al., 2017; details: two in vitro BACE1 assays, concentrations up to 100 μM; ref Netzer et al., 2017; cited from earlier work

SMILES | BACE and γ-secretase cleavage of APP, Aβ levels [1] | Aβ38 levels relative to controls (N2a695 cells; 5 μM, N2a695 cells, ELISA) | Reduction of Aβ40 levels compared with IMT (N2a695 cells; 10 µM, N2a695 cell supernatants, anti-Aβ40 ELISA) | Activity in Aβ production assays (N2a695 cells; N2a695 cells) | IC50 (Abl1 kinase) [µM] | Inhibition of BACE1 enzymatic activity (BACE1)
Cc1ccccc1Nc1nccc(-c2cncc(NC(=O)c3ccc(CN4CCN(C)CC4)cc3)c2)n1 [IMTi-1] | lower BACE and γ-secretase cleavage of APP | boost levels of Aβ38 above controls | reduced Aβ40 levels more strongly than IMT | active | 1.17 | 
Cc1ccc(NC(=O)c2ccc(CN3CCN(C)CC3)cc2)cc1Nc1nccc(-c2cccnc2)n1 [IMT, imatinib mesylate, reference compound] |  |  |  | active |  | does not inhibit BACE1 enzymatic activity
